# Reference: ChEMBL document CHEMBL1201862, “PubChem BioAssay data set” (2004)
#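 Growth conditions: 96-well plates. Treatment: test compound, 48 hours, 5 concentrations. Analysis: linear interpolation between bracketing concentrations; unreached endpoints set to highest concentration. GI50: concentration for 50% inhibition of growth.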 Calls of active or inactive are those of the source. No stated cut-off is given here; in the data, active = GI50 up to about 1.1 µM and inactive = higher.
# Key:
# Assay in all cases: NCI anticancer screen, dose series, 48 h
# [1] = tested on: LOX IMVI
# [2] = tested on: HOP-62
# [3] = tested on: COLO 205
# [4] = tested on: ACHN
# [5] = tested on: SK-MEL-28
# [6] = tested on: OVCAR-3
# [7] = tested on: SF-539
# [8] = tested on: HT-29
# [9] = tested on: NCI-H23
# [10] = tested on: SK-MEL-5
# [11] = tested on: HCT-15
# [12] = tested on: SNB-75
# [13] = tested on: HL-60
# [14] = tested on: UO-31
# [15] = tested on: RXF 393
Compound,GI50 [1],GI50 [2],GI50 [3],GI50 [4],GI50 [5],GI50 [6],GI50 [7],GI50 [8],GI50 [9],GI50 [10],GI50 [11] [µM],GI50 [12],GI50 [13],GI50 [14],GI50 [15]
CC1=C(C(=O)O)N2C(=O)[C@@H](NC(=O)C(c3ccc(O)cc3)N3CSC(=S)N(C(C)C)C3)C2SC1 (some centres not stated),> 100 µM (inactive),> 100 µM (inactive),97.7 µM (inactive),> 100 µM (inactive),> 100 µM (inactive),99.1 µM (inactive),> 100 µM (inactive),> 100 µM (inactive),> 100 µM (inactive),> 100 µM (inactive),> 100,> 100 µM (inactive),> 100 µM (inactive),> 100 µM (inactive),
Cc1ccccc1NC(=O)c1nc(S)nc(N)c1-c1ccccc1C,> 100 µM (inactive),> 100 µM (inactive),> 100 µM (inactive),> 100 µM (inactive),> 100 µM (inactive),> 100 µM (inactive),> 100 µM (inactive),> 100 µM (inactive),> 100 µM (inactive),> 100 µM (inactive),> 100,1.74 µM (inactive),> 100 µM (inactive),> 100 µM (inactive),> 100 µM (inactive)
O=[N+]([O-])c1ccc(C(Cl)C(Cl)c2ccc(C(Cl)C(Cl)c3ccc([N+](=O)[O-])cc3[N+](=O)[O-])cc2)c([N+](=O)[O-])c1 (configuration not stated),1.36 µM (inactive),3.01 µM (inactive),1 µM (active),2.05 µM (inactive),2.3 µM (inactive),0.254 µM (active),1.67 µM (inactive),1.76 µM (inactive),1.52 µM (inactive),0.991 µM (active),1.19,8.02 µM (inactive),1.93 µM (inactive),2.17 µM (inactive),0.964 µM (active)
Cc1ccc(Oc2ccc(C(=O)c3cccc(C(=O)c4ccc(Oc5ccc(C)cc5)cc4)n3)cc2)cc1,> 100 µM (inactive),> 100 µM (inactive),> 100 µM (inactive),> 100 µM (inactive),> 100 µM (inactive),> 100 µM (inactive),> 100 µM (inactive),> 100 µM (inactive),> 100 µM (inactive),> 100 µM (inactive),> 100,42.2 µM (inactive),> 100 µM (inactive),> 100 µM (inactive),> 100 µM (inactive)
COc1cc(C(=C2SCCS2)c2nccc3cc(OC)c(OC)cc23)c([N+](=O)[O-])cc1OC,80.9 µM (inactive),> 100 µM (inactive),35.3 µM (inactive),29.9 µM (inactive),> 100 µM (inactive),40.9 µM (inactive),> 100 µM (inactive),58.9 µM (inactive),40.8 µM (inactive),23.7 µM (inactive),,45.1 µM (inactive),10.5 µM (inactive),27.2 µM (inactive),> 100 µM (inactive)
C[n+]1c2ccccc2c(NCC(=O)O)c2ccccc21,,> 100 µM (inactive),> 100 µM (inactive),> 100 µM (inactive),,> 100 µM (inactive),> 100 µM (inactive),> 100 µM (inactive),> 100 µM (inactive),> 100 µM (inactive),> 100,> 100 µM (inactive),> 100 µM (inactive),> 100 µM (inactive),> 100 µM (inactive)
O=C(CC1C(=O)Nc2ccccc2[S+]1[O-])Nc1ccccc1 (configuration not stated),,> 100 µM (inactive),> 100 µM (inactive),59.7 µM (inactive),> 100 µM (inactive),> 100 µM (inactive),52.7 µM (inactive),> 100 µM (inactive),> 100 µM (inactive),> 100 µM (inactive),> 100,29.6 µM (inactive),> 100 µM (inactive),37.5 µM (inactive),19.8 µM (inactive)
O=C1N=CN=C2C=CC(Cl)=C(I)C12 (configuration not stated),56.1 µM (inactive),67.5 µM (inactive),> 100 µM (inactive),43.4 µM (inactive),> 100 µM (inactive),63 µM (inactive),,> 100 µM (inactive),46.2 µM (inactive),98.2 µM (inactive),,,93.5 µM (inactive),26.2 µM (inactive),23.3 µM (inactive)
COC(=O)[C@]1(C)CCC[C@@]2(C)C1CCC1=CC3(C(C)C)CCC12OO3 (some centres not stated),81.1 µM (inactive),> 100 µM (inactive),> 100 µM (inactive),63.4 µM (inactive),,> 100 µM (inactive),> 100 µM (inactive),34.4 µM (inactive),77.1 µM (inactive),31.1 µM (inactive),40,,15.9 µM (inactive),41 µM (inactive),
O=[N+]([O-])C1C2C=CC(C2)[C@H]1c1ccc(Cl)cc1Cl (some centres not stated),29.7 µM (inactive),> 10 µM (inactive),,33 µM (inactive),19.7 µM (inactive),,35.8 µM (inactive),21.4 µM (inactive),36.7 µM (inactive),4.36 µM (inactive),43.3,11.4 µM (inactive),19.3 µM (inactive),26.4 µM (inactive),20.9 µM (inactive)
